US8680094B2, “1, 4-benzoxazine compounds and derivatives thereof as therapeutic drugs for the treatment of neurodegenerative conditions” (Board of Regents, The University of Texas System, priority 2008, dated 2014)

Assays:
Experiment in all cases: In vitro kinase activity
Type in all cases: biochemical
Settings in all cases: percentage of control assays without compound, mean of duplicate
[1] = biological target: DAPK1 (Homo sapiens, UniProt P53355)
Experimental: (§1) To better understand the mechanism of action of the compounds of the present invention, but in no way a limitation; the effects of HSB-13 and ASK-2a on 20 different kinases were examined in vitro. At 500 nM concentration, ASK-2a inhibited the kinase activities of GSK3α, GSK3β, p38α, p38β, JNK3, MLK3, and B-Raf substantially. […] As described above, ASK-2a protects cerebellar granule neurons against LK-induced death but is ineffective against HCA-induced toxicity of HT-22 cells. In contrast, HSB-13 is protective in both paradigms. […] Previous studies have established that CDK inhibitors can protect neurons against a number of different apoptotic stimuli.
(§2) The activity of each kinase was measured in vitro in the presence either 100 nM or 500 nM ASK-2a. Kinase activity is expressed as a percentage of that in control assays (without ASK-2a). The values are mean of assays performed in duplicate. Substantial inhibition of kinase activity (>20%) is in bold type.
(§3) Table 3: Effect of HSB-13 at 500 nM on 20 different kinases measured in vitro. Kinase activity is expressed as a percentage of that in control assays (without HSB-13). The values are mean of assays performed in duplicate. Substantial inhibition of kinase activity (>20%) is in bold type.

[2] = biological target: T1, ASK1 (Homo sapiens, UniProt Q99683)
T1 sequence (Q99683 1-1374): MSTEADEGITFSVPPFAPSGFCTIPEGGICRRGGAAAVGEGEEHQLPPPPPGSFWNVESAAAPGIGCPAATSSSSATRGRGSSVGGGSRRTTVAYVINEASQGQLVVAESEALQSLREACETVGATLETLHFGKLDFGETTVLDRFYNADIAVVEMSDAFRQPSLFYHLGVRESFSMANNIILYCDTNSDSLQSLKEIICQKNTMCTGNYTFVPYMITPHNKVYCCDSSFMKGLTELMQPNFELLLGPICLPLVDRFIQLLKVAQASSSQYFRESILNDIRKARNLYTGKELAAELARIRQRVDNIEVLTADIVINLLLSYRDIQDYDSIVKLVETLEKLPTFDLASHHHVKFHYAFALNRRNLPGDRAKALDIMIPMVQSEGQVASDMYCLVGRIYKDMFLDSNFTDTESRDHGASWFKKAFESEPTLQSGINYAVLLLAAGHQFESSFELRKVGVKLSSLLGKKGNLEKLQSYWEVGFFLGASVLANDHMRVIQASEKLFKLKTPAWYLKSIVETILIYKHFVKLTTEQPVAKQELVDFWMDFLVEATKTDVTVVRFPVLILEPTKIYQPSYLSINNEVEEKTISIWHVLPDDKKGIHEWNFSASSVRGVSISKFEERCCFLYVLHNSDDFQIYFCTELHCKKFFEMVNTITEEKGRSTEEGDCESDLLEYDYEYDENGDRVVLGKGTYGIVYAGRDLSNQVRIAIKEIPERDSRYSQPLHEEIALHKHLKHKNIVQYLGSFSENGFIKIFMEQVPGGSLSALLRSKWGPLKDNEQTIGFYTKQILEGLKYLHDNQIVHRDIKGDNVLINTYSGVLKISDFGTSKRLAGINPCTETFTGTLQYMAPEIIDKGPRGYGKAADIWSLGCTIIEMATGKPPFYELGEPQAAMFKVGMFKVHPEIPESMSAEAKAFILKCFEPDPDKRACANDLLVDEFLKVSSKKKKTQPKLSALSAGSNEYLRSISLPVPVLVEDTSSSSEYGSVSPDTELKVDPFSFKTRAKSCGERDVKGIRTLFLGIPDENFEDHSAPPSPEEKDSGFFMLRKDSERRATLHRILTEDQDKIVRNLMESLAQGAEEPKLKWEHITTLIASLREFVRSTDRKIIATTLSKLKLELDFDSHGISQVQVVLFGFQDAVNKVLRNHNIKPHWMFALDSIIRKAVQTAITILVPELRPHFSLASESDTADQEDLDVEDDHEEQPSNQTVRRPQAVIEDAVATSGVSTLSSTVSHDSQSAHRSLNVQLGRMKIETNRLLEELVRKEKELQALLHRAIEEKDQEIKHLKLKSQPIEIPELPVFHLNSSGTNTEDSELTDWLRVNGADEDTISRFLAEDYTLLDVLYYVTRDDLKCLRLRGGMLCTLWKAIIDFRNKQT
Experimental: as §1, §2, §3

[3] = biological target: p38β (Homo sapiens, UniProt Q15759)
Sequence of p38β (Q15759 whole entry): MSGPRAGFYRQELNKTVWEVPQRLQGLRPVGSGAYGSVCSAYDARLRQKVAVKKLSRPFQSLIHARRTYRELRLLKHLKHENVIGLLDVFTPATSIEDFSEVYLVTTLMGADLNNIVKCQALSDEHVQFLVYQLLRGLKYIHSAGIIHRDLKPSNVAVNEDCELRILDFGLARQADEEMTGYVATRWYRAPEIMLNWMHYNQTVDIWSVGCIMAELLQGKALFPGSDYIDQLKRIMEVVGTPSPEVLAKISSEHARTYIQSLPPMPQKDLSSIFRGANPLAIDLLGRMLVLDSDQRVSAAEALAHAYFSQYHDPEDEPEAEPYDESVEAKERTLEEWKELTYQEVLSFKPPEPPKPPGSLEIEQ
Experimental: as §1, §2, §3

[4] = biological target: CDK4/Cyclin D1 (Homo sapiens, UniProt P11802)
Sequence of CDK4/Cyclin D1 (P11802 whole entry, species assumed): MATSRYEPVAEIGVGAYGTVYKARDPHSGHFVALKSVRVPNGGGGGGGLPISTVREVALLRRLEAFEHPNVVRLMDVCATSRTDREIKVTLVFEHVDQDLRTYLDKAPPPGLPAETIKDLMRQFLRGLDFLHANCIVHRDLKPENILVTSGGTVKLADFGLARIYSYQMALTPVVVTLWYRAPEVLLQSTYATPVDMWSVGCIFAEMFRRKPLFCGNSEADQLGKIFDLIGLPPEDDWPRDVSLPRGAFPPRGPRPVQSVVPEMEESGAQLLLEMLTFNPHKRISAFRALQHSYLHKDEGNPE
Sequence of CDK4/Cyclin D1 (P24385 whole entry partner, species assumed): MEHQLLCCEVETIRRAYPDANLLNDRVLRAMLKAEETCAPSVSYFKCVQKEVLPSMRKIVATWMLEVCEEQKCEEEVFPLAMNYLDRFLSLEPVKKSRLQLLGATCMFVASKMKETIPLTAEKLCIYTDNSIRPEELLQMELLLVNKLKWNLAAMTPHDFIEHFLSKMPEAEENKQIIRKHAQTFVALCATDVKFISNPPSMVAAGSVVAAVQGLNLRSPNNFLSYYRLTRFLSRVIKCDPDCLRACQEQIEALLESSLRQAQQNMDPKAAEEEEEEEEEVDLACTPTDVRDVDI
Experimental: as §1, §2, §3

[5] = biological target: ROCK1 (Homo sapiens, UniProt Q13464)
Sequence of ROCK1 (Q13464 whole entry, species assumed): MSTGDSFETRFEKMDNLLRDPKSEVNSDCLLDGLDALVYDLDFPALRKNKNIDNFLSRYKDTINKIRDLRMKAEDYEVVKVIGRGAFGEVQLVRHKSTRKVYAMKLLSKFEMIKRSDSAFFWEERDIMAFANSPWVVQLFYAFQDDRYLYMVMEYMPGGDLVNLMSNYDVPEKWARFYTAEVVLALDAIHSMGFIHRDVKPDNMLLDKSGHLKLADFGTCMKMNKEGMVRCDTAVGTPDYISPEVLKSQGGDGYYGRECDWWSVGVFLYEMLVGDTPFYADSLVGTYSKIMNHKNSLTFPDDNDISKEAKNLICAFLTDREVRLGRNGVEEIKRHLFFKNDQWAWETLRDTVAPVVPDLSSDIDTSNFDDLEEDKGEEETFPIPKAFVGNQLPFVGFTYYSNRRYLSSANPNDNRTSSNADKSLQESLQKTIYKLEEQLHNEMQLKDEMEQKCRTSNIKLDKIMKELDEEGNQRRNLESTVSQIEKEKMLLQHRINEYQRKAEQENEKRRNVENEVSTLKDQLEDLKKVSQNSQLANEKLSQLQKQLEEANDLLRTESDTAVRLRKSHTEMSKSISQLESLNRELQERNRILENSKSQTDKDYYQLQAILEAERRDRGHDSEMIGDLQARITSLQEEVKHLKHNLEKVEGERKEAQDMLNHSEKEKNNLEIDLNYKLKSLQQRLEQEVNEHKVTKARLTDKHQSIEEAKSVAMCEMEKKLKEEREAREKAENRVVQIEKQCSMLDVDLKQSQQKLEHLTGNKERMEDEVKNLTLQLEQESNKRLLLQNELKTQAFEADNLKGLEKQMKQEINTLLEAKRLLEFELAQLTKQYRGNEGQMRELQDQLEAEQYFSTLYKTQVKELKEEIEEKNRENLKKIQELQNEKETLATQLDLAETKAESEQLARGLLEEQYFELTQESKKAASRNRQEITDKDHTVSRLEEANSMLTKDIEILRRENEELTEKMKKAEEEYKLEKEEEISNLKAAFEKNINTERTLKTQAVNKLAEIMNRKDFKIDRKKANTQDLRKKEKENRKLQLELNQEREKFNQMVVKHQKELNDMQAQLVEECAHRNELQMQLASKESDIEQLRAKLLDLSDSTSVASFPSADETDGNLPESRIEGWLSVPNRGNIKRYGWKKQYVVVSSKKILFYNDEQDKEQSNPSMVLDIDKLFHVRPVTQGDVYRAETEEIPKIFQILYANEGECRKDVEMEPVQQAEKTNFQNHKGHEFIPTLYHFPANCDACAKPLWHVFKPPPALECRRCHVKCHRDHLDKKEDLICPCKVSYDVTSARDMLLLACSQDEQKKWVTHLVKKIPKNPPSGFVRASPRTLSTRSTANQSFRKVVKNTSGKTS
Experimental: as §1, §2, §3

Sequence of DAPK1 (P53355 whole entry, species assumed): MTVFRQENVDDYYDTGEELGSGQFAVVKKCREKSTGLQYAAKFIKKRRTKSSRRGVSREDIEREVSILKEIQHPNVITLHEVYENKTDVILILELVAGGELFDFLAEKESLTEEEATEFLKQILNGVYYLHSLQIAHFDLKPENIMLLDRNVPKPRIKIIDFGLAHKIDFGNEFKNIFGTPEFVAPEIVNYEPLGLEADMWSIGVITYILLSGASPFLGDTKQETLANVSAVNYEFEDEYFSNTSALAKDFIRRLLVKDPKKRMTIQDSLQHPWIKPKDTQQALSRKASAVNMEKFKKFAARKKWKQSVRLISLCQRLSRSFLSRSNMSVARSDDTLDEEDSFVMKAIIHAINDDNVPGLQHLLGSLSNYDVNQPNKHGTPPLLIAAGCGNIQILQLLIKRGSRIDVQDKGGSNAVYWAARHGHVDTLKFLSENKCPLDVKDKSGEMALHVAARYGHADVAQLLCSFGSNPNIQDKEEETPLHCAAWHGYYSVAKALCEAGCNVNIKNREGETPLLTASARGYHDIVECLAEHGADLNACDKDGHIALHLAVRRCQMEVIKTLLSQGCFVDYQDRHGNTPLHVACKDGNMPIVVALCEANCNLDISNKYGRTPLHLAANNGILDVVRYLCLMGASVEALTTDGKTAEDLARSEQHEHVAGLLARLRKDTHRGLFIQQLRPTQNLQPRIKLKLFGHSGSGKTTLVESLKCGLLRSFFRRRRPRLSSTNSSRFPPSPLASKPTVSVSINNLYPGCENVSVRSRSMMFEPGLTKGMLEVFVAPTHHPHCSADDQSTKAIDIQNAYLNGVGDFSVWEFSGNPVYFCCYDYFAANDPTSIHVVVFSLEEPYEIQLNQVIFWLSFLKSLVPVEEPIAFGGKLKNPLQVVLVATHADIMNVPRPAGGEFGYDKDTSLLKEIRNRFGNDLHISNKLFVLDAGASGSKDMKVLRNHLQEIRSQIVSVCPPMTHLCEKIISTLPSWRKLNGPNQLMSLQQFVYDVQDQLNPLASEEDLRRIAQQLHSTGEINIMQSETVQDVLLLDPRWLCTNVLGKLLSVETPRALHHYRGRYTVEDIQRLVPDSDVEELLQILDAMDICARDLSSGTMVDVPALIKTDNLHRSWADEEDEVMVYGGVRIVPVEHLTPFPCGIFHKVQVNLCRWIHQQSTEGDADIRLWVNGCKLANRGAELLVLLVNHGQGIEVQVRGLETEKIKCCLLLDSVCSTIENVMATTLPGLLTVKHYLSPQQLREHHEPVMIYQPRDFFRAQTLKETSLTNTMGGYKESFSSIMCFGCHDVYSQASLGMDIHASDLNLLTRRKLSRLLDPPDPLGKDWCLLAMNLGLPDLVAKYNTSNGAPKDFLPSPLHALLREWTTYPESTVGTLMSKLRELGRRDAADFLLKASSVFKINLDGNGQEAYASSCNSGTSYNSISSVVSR

Structure (SMILES) | % ACTIVITY ([1]; 100 nM) [%] | % ACTIVITY ([1]; 500 nM) [%] | % ACTIVITY ([2]; 100 nM) [%] | % ACTIVITY ([2]; 500 nM) [%] | % ACTIVITY ([3]; 100 nM, 0.1 µM) [%] | % ACTIVITY ([3]; 100 nM, listed as ASK2a, 0.1 µM) | % ACTIVITY ([4]; 100 nM) [%] | % ACTIVITY ([4]; 500 nM) [%] | % ACTIVITY ([5]; 100 nM) [%] | % ACTIVITY ([5]; 500 nM) [%] | % ACTIVITY ([3]; 500 nM) [%]
O=C1Nc2ccccc2OC1=Cc1cc(Br)c(O)c(Br)c1 [ASK-2a] | 98 | 95 | 104 | 97 | 33 | inhibited efficiently | 93 | 97 | 96 | 98 | 
Nc1ccc2c(c1)NC(=O)/C(=C/c1cc(Br)c(O)c(Br)c1)O2 [HSB-13, (Z)-6-amino-2-(3,′5′-dibromo-4′-hydrozybenzylidene)-2H-benzo[b][1,4]oxazin-3(4H)-one] | 96 | 84 | 104 | 95 |  |  | 103 | 88 | 91 |  | 10
